Source: US9956426B2, “Upconverting nanoparticles” (priority 2015, dated 2018)
Where two headings read alike, the source gives them in different places.

Key:
[1] = Body mass change of mice in in vivo PDT treatment groups; design: species or system Balb/c mice; details: control and treatment groups, after 14 days
Experimental: (§1) An optical fiber-coupled 980 nm high power laser diode (Hi-Tech Optoelectronics Co., Ltd. Beijing, China) was used to irradiate tumors at a power density of about 0.5 W/cm^2 for 40 min. (1 min. interval after each minute of irradiation). The tumor sizes were measured by a caliper every other day and calculated as the volume (tumor length)×(tumor width)^2/2. The body weight of mice was also measured with every tumor measurement and percent change was calculated by the formula (observed body weight)/(body weight on day 0)×100%.
FIG. 15 is a plot of body mass change of mice in in vivo PDT treatment groups with UCNP and light exposure after 14 days. […]

[2] = 5-Aminolevulinic acid loading determination by HPLC; type: physicochemical; details: HPLC of supernatants, back-calculation
Excerpt: FT-IR spectral analysis confirmed that the conjugation of 5-ALA to the nanoparticles was via a hydrazone linkage as shown in panels (d) and (e) of FIG. 7, which show (d) full and (e) detailed spectra for polyacrylic acid-coated upconverting nanoparticles, (PAA-UCNPs), hydrazide-functionalized upconverting nanoparticles (Hyd-UCNPs) and 5-ALA-conjugated upconverting nanoparticles. On the spectrum for Poly(acrylic) acid-functionalized UCNPs (PAA-UCNPs), the peak at 1636 cm^−1 is attributed to the resonance of the carboxyl groups. […]
FT-IR spectra were recorded on a Nicolet Nexus FT-IR spectrometer, using the SMART iTR™ for ATR measurements. The upconversion photoluminescence spectra were measured by a SPEX FluoroMax®-3 spectrofluorimeter (Horiba) (spectral resolution of 1 nm, emission slit of 5 nm, and integral period of 0.1 s) excited at 980 nm using a fiber-coupled laser diode introduced to the sample chamber of the spectrofluorimeter. […] The size distribution of the samples was determined by dynamic light scattering (DLS) equipped with a Zetasizer Nano-ZS (He—Ne laser wavelength at 633 nm) and an auto-titrator (Malvern Instruments, Malvern, UK). The absorbance for the MTT experiment and the fluorescence for DCFDA staining experiment was found using a microplate reader (Molecular Devices Co., Menlo Park, Calif.). […]

HeLa cells [3] = details: 100 μg/mL
Experimental: As a model to examine the efficacy of 5-aminolevulinic acid-conjugated upconverting particles as described herein, particles prepared as described herein (having an 80 mol % Yb content), a 3-(4,5-dimethylthiazol-2-yl)-2,5-diphenyltetrazolium bromide (MTT) proliferation assay was conducted to determine inhibition of cell proliferation using photodynamic therapy with the nanoparticles prepared as described herein. In the cell proliferation assay, HeLa cells were exposed to 5-aminolevulinic acid-conjugated upconverting particles and various controls (all 100 μg/mL) for 4 h and the cells were then irradiated by irradiation of continuous wave 980 nm light at 1 W/cm^2. The results of the assay are shown in FIG. 8, which depicts cell viability as a function of irradiation time.
Then, impact of the lanthanide-doped upconverting nanoparticles on 5-ALA-induced photodynamic therapy was evaluated. […] Cells exposed to these control nanoparticles were irradiated at a biocompatible low power density of 0.35 W/cm^2.
A 96-well microtiter plate seeded with 1×10^4 HeLa cells/well was incubated overnight at 37° C. with 5% CO2. Cells were subsequently exposed to (i) 5-aminolevulinic acid functionalized upconverting nanoparticles comprising 80 mol % ytterbium (ALA-UCNPs, 100 μg/mL), (ii) hydrazide functionalized upconverting nanoparticles (no 5-ALA) (Hyd-UCNPs, 100 μg/mL), (iii) free 5-aminolevulinic acid (ALA, 100 μg/mL) or (iv) PBS (growth medium control) and then irradiated with CW 980 nm laser diode at 1 W/cm^2 for 0, 5, 10, or 20 min. After overnight incubation, cells were labeled with 12 mM solution of MTT in PBS for 4 h. Finally, the media was aspirated and replaced with 50 μL DMSO and cell viability was quantified by formazan absorption determined by a plate reader at 540 nm.
FIG. 8: Plots showing the viability of HeLa cells irradiated with CW 980 nm light at 1 W/cm^2 power density.
FIG. 9: Plots showing the viability of HeLa cells irradiated with CW 980 nm light at 0.35 W/cm^2 power density. […]

[4] = Hydrodynamic size by dynamic light scattering; type: physicochemical; details: dynamic light scattering in PBS
Experimental: Dynamic light scattering was used to determine that the hydrodynamic size of the 5-ALA-conjugated nanoparticles was about 62 nm as shown in FIG. 6.
FT-IR spectra were recorded on a Nicolet Nexus FT-IR spectrometer, using the SMART iTR™ for ATR measurements. The upconversion photoluminescence spectra were measured by a SPEX FluoroMax®-3 spectrofluorimeter (Horiba) (spectral resolution of 1 nm, emission slit of 5 nm, and integral period of 0.1 s) excited at 980 nm using a fiber-coupled laser diode introduced to the sample chamber of the spectrofluorimeter. Cells were imaged using a Nikon Eclipse TE 2000 microscope, equipped with a Nuance CCD camera capable of imaging. The light source was a fiber-coupled laser diode emitting at 980 nm, with the fiber introduced through the entrance port of the microscope. The size distribution of the samples was determined by dynamic light scattering (DLS) equipped with a Zetasizer Nano-ZS (He—Ne laser wavelength at 633 nm) and an auto-titrator (Malvern Instruments, Malvern, UK). The absorbance for the MTT experiment and the fluorescence for DCFDA staining experiment was found using a microplate reader (Molecular Devices Co., Menlo Park, Calif.). 5-ALA concentration was monitored by HPLC (Varian ProStar) for loading efficiency data.

4T1 tumors = assay: In vivo deep tumor photodynamic therapy treatment, tumor volume; design: species or system Balb/c mice; details: intratumoral
Experimental: In vivo testing was conducted in subcutaneous tumors grown on Balb/c mice models to evaluate the effect of photodynamic therapy treatment using the upconversion nanoparticles described herein. The tumor volume reduction effect of a red light laser ranging from ˜635-685 nm (PpIX's activation region) and 980 nm light irradiation (activation wavelength of the upconverting nanoparticles described herein) was compared at a biocompatible level of 0.5 W/cm^2.
Female Balb/c mice were purchased from Nanjing Peng Sheng Biological Technology Co. Ltd. and used under protocols approved by Soochow University Laboratory Animal Center. 4T1 cells (1×10^6) suspended in 40 μL of PBS were subcutaneously injected into the back of each female Balb/c mouse. After about 6 days, the mice bearing 4T1 tumors were treated when the tumor volume reached about 50 mm^3.
as §1
FIGS. 14(a) and 14(b). FIG. 14(a): Plots of the in vivo volume of tumors exposed to various controls and ALAUCNPs with red and near-infrared irradiation (0.5 W/cm^2) in simulated deep tumors. […] Statistical significance was determined from one-way t tests; significance (*) was based on p<0.05 and p>0.05 for not significant (**) pairs. There was no statistical difference between treatments with ALA-UCNPs with no pork whether red or near infra-red light was used. […] FIG. 14(b) is a diagram of in vivo photodynamic therapy treatment with red or near infra-red light conducted inserting pork tissue between the laser and the mice tumors to simulate treatment of deep tumors.

[5] = test system: singlet oxygen production in HeLa cells; assay: Singlet oxygen detection by DCFDA fluorescence (imaging and plate reader); type: cell-based; details: 100 μg/mL, CW 980 nm 1 W/cm^2, 0, 5, 10 min irradiation
Excerpt: To investigate the mechanism of the results from the above mentioned experiments, cells were stained with 2′,7′-dichlorofluorescein diacetate (DCFDA), a fluorescent indicator for singlet oxygen generation, and imaged using fluorescence microscopy. When DCFDA diffuses into the cell it is […] into a non-fluorescent compound by cellular esterases. Reactive oxygen species (ROS) oxidize the non-fluorescent compound to 2′, 7′-dichlorofluorescein (DCF), which has bright green fluorescence. […] See images (a), (b) and (c) of FIG. 10. […] See images (d), (e) and (f) of FIG. 10. The data were corroborated by quantifying the singlet oxygen production by measuring the fluorescence intensity of the DCFDA using 96-well microtiter plate reader. Both DCFDA fluorescence imaging and microtiter plate measurement indicate effective prodrug delivery and subsequent PpIX activation by the red-emitting upconverting nanoparticles provided by the present disclosure.
Glass-bottom confocal dishes seeded with 1×10^6 HeLa cells were incubated overnight at 37° C. with 5% CO2. […]
FIGS. 10(a), 10(b), 10(c), 10(d), 10(e) and 10(f). Fluorescence microscopy images showing detection of singlet oxygen production in cells by the fluorescence of DCFDA.

HeLa cells [6] = assay: Simulated deep-tissue photodynamic therapy, MTT assay with pork tissue between laser and cells; type: cell-based; details: 100 μg/mL; for cell viability: CW 980 nm 1 W/cm^2, 20 min
Experimental: Photodynamic therapy of a deep-set tumor condition using the 5-aminolevulinic acid conjugated upconverting nanoparticles with an 80% ytterbium ratio was simulated by placing pieces of pork tissue of varying thickness (representing a patient's flesh) between a near infra-red laser and HeLa cells exposed to the upconverting nanoparticles, as shown in FIG. 12(a). The cells were analyzed for cell viability using an MTT assay. After 20 min. of irradiation at 1 W/cm^2, for all pork thicknesses, the cells exposed the 5-aminolevulinic acid conjugated nanoparticles as disclosed herein had cell viabilities that were reduced significant to the control hydrazide-functionalized upconverting nanoparticles (Hyd-UCNPs). In the absence of pork (0 mm), cell viability was less than 20%, in the presence of 6 mm pork, cell viability was less than 50%, and even with 12 mm pork, cell viability was still reduced to below 80% compared to the control. This establishes and validates the feasibility of using upconverting nanoparticles as a near infra-red-to-red transducer for prodrug photodynamic therapy at a deep-tissue level (up to about 1 cm or greater).
Finally, the red-emitting upconverting nanoparticle system containing an ytterbium ratio of 80% was compared with the known upconverting nanoparticle β/β core/shell red-emitting nanoparticles at a deep tissue level with a biocompatible low power density 0.35 W/cm^2 for laser irradiation. […] The 5-aminolevulinic acid conjugated nanoparticles described herein having an ytterbium ratio of 80% achieved 40% cell death even through 1.2 cm of pork. The ability of the presently-disclosed lanthanide-doped upconverting nanoparticles' to induce significant phototherapeutic effect with such low power excitation yet thick superficial tissue makes it a major step forward in photodynamic therapy materials.
FIGS. 12(a) and 12(b): FIG. 12(a) Photograph of the setup for simulated photodynamic therapy using an in vitro MTT assay. FIG. 12(b): Plots of HeLa cell viability for cells covered with 0, 6, and 12 mm pork tissue on top of the cells and irradiated with CW 980 nm light at a 1 W/cm^2 power density for 20 min.
FIG. 13: Plots of HeLa cell viability for cells covered with 0, 6, and 12 mm pork tissue on top of the cells and irradiated with CW 980 nm light at a 0.35 W/cm^2 power density for 20 min.

| Substance | body mass change [1] | loading capacity for 5-ALA [2] | viability of cells (HeLa cells [3]; 4 h exposure, CW 980 nm 1 W/cm^2, 10 min irradiation) | cell death (HeLa cells [3]; CW 980 nm 0.35 W/cm^2, 20 min irradiation) | killing rate (HeLa cells [3]; CW 980 nm 1 W/cm^2, 10 min irradiation) [%] | hydrodynamic size [4] | tumor reduction, 980 nm light with 12 mm pork versus red light with 6 mm pork (4T1 tumors; 0.5 W/cm^2) | tumor volume, treatment with NIR versus red light (4T1 tumors; 0.5 W/cm^2, no pork) | tumor reduction (4T1 tumors; 980 nm 0.5 W/cm^2, 6 or 12 mm of pork tissue above the tumor) | therapeutic effect (4T1 tumors; red light irradiation 0.5 W/cm^2, pork tissue above the tumor) | DCFDA fluorescence (singlet oxygen generation) [5] | cell viability (HeLa cells [6]; 6 mm pork) | cell viability (HeLa cells [6]; 12 mm pork, compared to the control) | cell viability (HeLa cells [6]; absence of pork (0 mm)) | cell death (HeLa cells [6]; through 1.2 cm of pork, CW 980 nm 0.35 W/cm^2, 20 min) [%] | cell killing (HeLa cells [3]; CW 980 nm 0.35 W/cm^2) |
| --- | --- | --- | --- | --- | --- | --- | --- | --- | --- | --- | --- | --- | --- | --- | --- | --- |
| α-NaYF4:Yb(80%),Er(2%)@CaF2 ALA [ALA-UCNPs] | no significant difference across the groups | about 4.5 μmol/mg | about 30% | more than 60% | ~70 | about 62 nm | significantly more effective | no statistically significant difference | about 150 mm^3 | no noticeable therapeutic effect | intensifying DCFDA fluorescence over irradiation time | less than 50% | below 80% | less than 20% | 40 |  |
| β-NaYF4:Yb(20%),Er(2%)@β-NaYF4 ALA [reference compound] |  | ~4.5 µmol/mg |  |  |  |  |  |  |  |  |  |  |  |  |  | no cell killing |
